Data on 5 molecules can be found in patent US10597398B2, “Suppression and regeneration promoting effect of low molecular weight compound on cancer and fibrosis” (NATIONAL UNIVERSITY CORPORATION TOTTORI UNIVERSITY, priority 2015, dated 2020).

Assay type in all cases: cell-based, human
In series [1] the test system is LX-2 cells. The series can be described thus: Growth inhibitory effect on LX-2 cells. As to conditions: 100 μM.
Series [2] relates to Wnt/β-catenin signaling. The series can be described thus: Inhibitory effect on Wnt/β-catenin signaling in mesenchymal stem cells (E7-TCF4 luciferase). On the procedure: A pTCF4-CMVpro-GL4.20 plasmid vector, having 3 copies of TCF4 motifs (CCT TTG ATC) upstream of aCMV promoter in a multiple cloning site of pGL4.20 (Promega Corp., Fitchburg, Wis.), was linearized and stably transfected into UE7T-13 cells to prepare E7-TCF4 cells. Also, a pCMVpro-GL4.20 plasmid vector, having a CMV promoter in a multiple cloning site of pGL4.20, was linearized and stably transfected into UE7T-13 cells. The resulting stable cells (E7-CMV cells) were cultured, like UE7T-13 cells, in 10% FBS/DMEM containing 0.25 μg/mL puromycin.
UE7T-13 cells were used to measure Wnt/β-catenin signaling activity. The concentrations of the respective compounds were as described in FIG. 42. Each control sample used was 0.1% DMSO, a solvent for each compound.
First, 70 to 90% confluent E7-TCF4 cells and E7-CMV cells were harvested and seeded (n=3) at 1.6758×10^4 cells/well of a 24-well plate (9.0×10^3 cells/cm^2). One day after that, each compound was added to the cells and the mixture was cultured at 37° C. Day 4 after the compound addition, the culture medium was changed.
At day 1, 4, or 8 after the compound treatment, the culture medium was discarded, and 100 μL of room temperature 5×Passive Lysis Buffer (PLB), which had been diluted 5-fold with MilliQ water, was added to each well. Next, the plate was shaken at room temperature for 15 min and was then frozen at −30° C. overnight. A Luciferase Assay Substrate was diluted with 10 mL of room temperature Luciferase Assay Buffer II to prepare Luciferase Assay Reagent II (LARII). The frozen PLB lysate samples were thawed and permeabilized for 15 min. Then, 10 μL aliquots were added to wells of a 96-well white plate. While 50 μL aliquots of LARII were each added to each well, luminescence was quantified by using a 1420 multi-label counter ARVO MX to determine firefly luciferase activity.

In another series the test system is HuH-7 cells. Put plainly: Growth inhibitory effect on cancer cells (WST assay), Example 2.3. As to conditions: for IC50: HuH-7 cells, WST assay, concentrations 0-50 μM, control 0.1% DMSO; for IC50 compared with IC-2: comparison with IC-2. On the procedure:
HuH-7 cells, a human liver cancer cell line, were cultured on 10-cm cell culture dishes (TPP Techno Plastic Products AG, Trasadingen, Switzerland) by using DMEM under conditions at 5% CO2, 37° C., and 100% humidity. When the cells were 70 to 90% confluent, 200 μL of 0.25% Trypsin/1 mM EDTA solution, which had been prepared by diluting the stock solution 10-fold with PBS (−), was added to detach the cells. Then, the cells were centrifuged at 1000 rpm for 3 min at room temperature. The cells recovered were subcultured at a 1:4 split ratio.
First, 70 to 90% confluent HuH-7 cells were harvested and seeded (n=3) at 5×10^3 cells/well of a 96-well plate (TPP). After 24 h, each compound was added to the cells and the mixture was cultured at 37° C. The concentrations of each compound were 0, 10, 20, 30, 40, and 50 μM. For IC-2-506-1, however, the concentrations used were 0, 10, 20, 25, 30, 40, and 50 μM. Each control sample (0 μM) used was 0.1% DMSO, a solvent for each compound.
Next, 0, 24, 48, and 96 h after the compound treatment, 100 μIL of DMEM-diluted 10% Cell Counting Kit-8 (DOJINDO LABORATORIES, Kumamoto) was added. The mixture was incubated at 37° C. for 60 min and its absorbance (at a measurement wavelength of 450 nm/control wavelength of 600 nm) was measured by using a Sunrise Rainbow RC (Tecan Group Ltd., Mannedorf, Switzerland). Absorbance for the cells alone was calculated by subtracting, from the reading obtained, absorbance for 10% Cell Counting Kit-8 alone.
The “*” in figures indicates a significant difference of p<0.05 between 0.1% DMSO and each compound; and the “**” indicates a significant difference of p<0.01 (the same applies to all the figures in Examples).

Series [3] concerns cancer stem cells (CD44) in HuH-7 cells. Put plainly: Inhibitory effect on cancer stem cells (FCM analysis of CD44), Example 2.4. As to conditions: for inhibitory effect on cancer stem cells compared with IC-2: comparison with IC-2. On the procedure:
CD44, a cancer stem cell marker, was used as an indicator to examine an inhibitory effect of each compound on cancer stem cells. The concentrations of the respective compounds were as described in FIG. 32. Each control sample used was 0.1% DMSO, a solvent for each compound. In the figures, the “‡” indicates a significant difference of p<0.01.
First, 70 to 90% confluent HuH-7 cells were harvested and seeded at 1.5×10^6 cells per 10-cm cell culture dish. After 24 h, each compound was added to the cells and the mixture was cultured at 37° C. At 48 h after the compound treatment, the cells were harvested from each culture dish. The cells were centrifuged at 1000 rpm and at 4° C. for 3 min to remove a supernatant and were then washed twice with 1 mL of 0.5% FBS/2 mM EDTA/PBS. Next, the cells were suspended in 500 μL of 5% BSA/0.5% FBS/2 mM EDTA/PBS for blocking at 4° C. for 15 min. Then, 5 μL of a mouse anti-human CD44 monoclonal antibody (156-3C11, Cell Signaling Technology Inc., Danvers, Mass.) was added to 500 μL of the cell suspension. The mixture was resuspended and subjected to a primary antibody reaction in a dark room at 4° C. for 30 min. After that, the cells were washed 3 times with 1 mL of 0.5% FBS/2 mM EDTA/PBS. Subsequently, 100 μL of Alexa Fluor 488-labeled IgG (H+L) (ab150113, Abcam Ltd., Cambridge, UK), which had been diluted 200-fold with 5% BSA/0.5% FBS/2 mM EDTA/PBS, was added and the cells were suspended. Then, a secondary antibody reaction was carried out in a dark room at 4° C. for 30 min. After that, the cells were washed 3 times with 1 mL of 0.5% FBS/2 mM EDTA/PBS. Thereafter, the cells were suspended in 500 μL of 0.5% FBS/2 mM EDTA/PBS and were made to pass through a 40 μm-mesh column (Becton, Dickinson and Company, Franklin Lakes, N.J.). A Beckman Coulter-Moflo XDP (Beckman Coulter Inc., Fullerton, Calif.) was used for analysis. Following the analysis, further analysis was conducted by adding 2 μL of 0.25 mg/mL Propidium Iodide (PI). The same experiment was repeated four times.

Series [4] concerns LX-2 cells. Put plainly: Anti-fibrosis effect, summary statements on Example 3 (marker not specified). As to conditions: concentration even lower than that of IC-2. The text has this:
α-Smooth muscle actin (α-SMA), a fibrosis marker, was used as an indicator, and RNA was collected from LX-2 cells treated with each low-molecular-weight compound. Next, an inhibitory effect on fibrosis was examined by real-time RT-PCR.
In addition, instead of α-SMA, another fibrosis marker collagen, type I, alpha 1 (COL1A1) was used as an indicator, and substantially the same protocol was repeated. The concentrations of each compound used were as described in FIG. 34. Each control sample used was 0.1% DMSO, a solvent for each compound. Here, COL1A1 primers used were 5′-CCT CCA GGG CTC CAA CGA G-3′ and 5′-TCAATCACTGTCTTGCCCCA-3′. The annealing was performed at 58° C. for 5 sec. The measurement results were obtained by dividing the calculated value for the COL1A1 gene by the calculated value for the GAPDH gene.

In a further series the test system is mesenchymal stem cell. Put plainly: Hepatocyte differentiation-inducing effect, summary statements on Example 4 (readout not specified). As to conditions: low concentration. The text has this: Albumin, a hepatocyte marker, was used as an indicator, and RNA was collected from cells treated with each compound. Next, a hepatocyte differentiation-inducing effect was examined by real-time RT-PCR. The concentrations of the respective compounds were as described in FIG. 35. Each control sample used was 0.1% DMSO, a solvent for each compound.
By using urea synthesis, a hepatocyte function, as an indicator, a hepatocyte differentiation-inducing effect of each compound was investigated.
The cells treated with each compound were subjected to immunofluorescence analysis of albumin, a hepatocyte marker, to investigate a hepatocyte differentiation-inducing effect. The concentrations of the respective compounds were as described in FIG. 37. Each control sample used was 0.1% DMSO, a solvent for each compound.
By using glycogen synthesis, a hepatocyte function, as an indicator, a hepatocyte differentiation-inducing effect of each compound was investigated.

Series [5] relates to Wnt/β-catenin signaling. The series can be described thus: Inhibitory effect on Wnt/β-catenin signaling in liver cancer cells (HuH7-TCF4 luciferase). As to conditions: concentration equal to or lower than that of IC-2. On the procedure: A pTCF4-CMVpro-GL4.20 plasmid vector, which had been constructed by inserting 3 copies of TCF4 motifs (CCT TTG ATC) upstream of a CMV promoter into a multiple cloning site of pGL4.20 (Promega Corp., Fitchburg, Wis.), was linearized and stably transfected into the HuH-7 cells. The resulting stable cells (HuH7-TCF4 cells) and HuH-7 cells were likewise cultured.
While each compound was added at concentrations where the growth of HuH-7 cells was reduced to about 50% or less, Wnt/β-catenin signaling activity was measured. The concentrations of the respective compounds were as described in FIG. 40. Control samples used were 0.1% DMSO, a solvent for each compound, and 0.5 μM 5-FU.
First, 70 to 90% confluent HuH7-TCF4 cells were harvested and seeded (n=3) at 5.0×10^4 cells/well of a 24-well plate (TPP). After 24 h, each compound was added to the cells and the mixture was cultured at 37° C.
At 48 h after the compound treatment, the culture medium was discarded, and 100 μL of room temperature 5×Passive Lysis Buffer (PLB) (Promega Corp., Fitchburg, Wis.), which had been diluted 5-fold with MilliQ water, was added to each well. Next, the plate was shaken at room temperature for 15 min and was then frozen at −30° C. overnight. A Luciferase Assay Substrate was diluted with 10 mL of room temperature Luciferase Assay Buffer II to prepare Luciferase Assay Reagent II (LARII) (Promega). The frozen PLB lysate samples were thawed and permeabilized for 15 min. Then, 10 μL aliquots were added to wells of a 96-well white plate (Corning Inc., Corning, N.Y.). While 50 μL aliquots of LARII were each added to each well, luminescence was quantified by using a 1420 multi-label counter ARVO MX (PerkinElmer Singapore Pte Ltd., Singapore) to determine firefly luciferase activity. Note that a significant difference was evaluated by using (two-tailed) Student's t-test. The “*” in figures indicates a significant difference of p<0.05 between 0.1% DMSO and each compound; and the “**” indicates a significant difference of p<0.01 (the same applies to all the figures in Examples).

Consider `NC(=O)N1CCC(=O)N2C(Cc3ccccc3)C(=O)N(Cc3cccc4ccccc34)CC12` (stereo not shown) [Compound 9b-CONH2], for which the “growth inhibitory effect on LX-2 cells” value in the series on LX-2 cells [1] is given as “Neither 100 μM of 9b nor 9b-CONH2 exhibited a growth inhibitory effect”.

As for `O=C1C(Cc2ccccc2)N2C(=O)CCNC2CN1Cc1cccc2ccccc12` (stereo not shown) [Compound 9b], in the series on LX-2 cells [1], the “growth inhibitory effect on LX-2 cells” value is reported as “Neither 100 μM of 9b nor 9b-CONH2 exhibited a growth inhibitory effect”. Besides, the “inhibitory effect on Wnt/β-catenin signaling in mesenchymal stem cells” value with Wnt/β-catenin signaling [2] (E7-TCF4 cells, day 8 after compound addition, compared with control 0.1% DMSO) is “all the compounds except for IC-2-Ar-OMe, 9b, and 7c-NT exhibited a significant inhibitory effect”.

Take `O=C1C(Cc2ccccc2)N2C(=O)CCN(C(=O)NCc3ccc(F)cc3)C2CN1Cc1cccc2ccccc12` (stereo not shown) [IC-2-F]: in the series with HuH-7 cells, 22.2 µM corresponded to half-maximal inhibition (IC50) and the “IC50 compared with IC-2” value was “lower IC50 than IC-2”. Further, the “inhibitory effect on cancer stem cells compared with IC-2” value in series [3] is recorded as “more potent inhibitory effect on cancer stem cells than IC-2”. The “anti-fibrosis effect compared with IC-2, lower concentration” value in the series with LX-2 cells [4] is recorded as “more potent anti-fibrosis effect”. The “hepatocyte-inducing effect at low concentration” value in the series with mesenchymal stem cell is “exerted a hepatocyte-inducing effect”. Also, the “inhibitory effect on Wnt/β-catenin signaling pathway in liver cancer cells compared with IC-2” value in the series on Wnt/β-catenin signaling [5] is “more potent inhibitory effect”.

In the series on HuH-7 cells, `O=C1C(Cc2ccccc2)N2C(=O)CCN(C(=O)NCc3ccc([N+](=O)[O-])cc3)C2CN1Cc1cccc2ccccc12` (stereo not shown) [IC-2-NO2] showed a concentration for half-maximal inhibition (IC50) of 28.1 µM. In addition, in series [3], the “inhibitory effect on cancer stem cells compared with IC-2” value is given as “more potent inhibitory effect on cancer stem cells than IC-2”. In the series with Wnt/β-catenin signaling [5], the “inhibitory effect on Wnt/β-catenin signaling pathway in liver cancer cells compared with IC-2” value is reported as “more potent inhibitory effect”. In addition, the “inhibitory effect on Wnt/β-catenin signaling pathway in mesenchymal stem cells compared with IC-2” value in the series with Wnt/β-catenin signaling [2] (concentration equal to or lower than that of IC-2) is “more potent inhibitory effect”.

In the case of `CC(C)(C)[Si](C)(C)Oc1ccc(CNC(=O)N2CCC(=O)N3C(Cc4ccccc4)C(=O)N(Cc4cccc5ccccc45)CC23)cc1` (stereo not shown) [IC-2-OTBS], in the series on HuH-7 cells, half-maximal inhibition (IC50) required 11.8 µM and the “IC50 compared with IC-2” value was “lower IC50 than IC-2”. The “anti-tumor effect compared with IC-2” value in the series on HuH-7 cells (at a concentration lower than that of IC-2) was “more potent anti-tumor effect”. In series [3] (concentration even lower than that of IC-2), the “inhibitory effect on cancer stem cells at a concentration lower than that of IC-2” value was “exerted an inhibitory effect on cancer stem cells”. Moreover, the “anti-fibrosis effect compared with IC-2, lower concentration” value in the series on LX-2 cells [4] is “more potent anti-fibrosis effect”. In addition, in the series with mesenchymal stem cell, the “hepatocyte-inducing effect at low concentration” value is reported as “exerted a hepatocyte-inducing effect”.

As a reminder, the IC50 is the concentration that gives 50% inhibition.
